Reference: patent US20190117657A1, “METHOD OF INHIBITING HIGH FAT DIET-RELATED CONDITIONS” (South Australian Health and Medical Research Institute …, priority 2016, published 2019)
Entries after “also recorded” stand apart in the source; their conditions may differ. Counter-ions that a name gives are not always drawn.

Key:
MNKs = test: eIF4E phosphorylation (P-eIF4E immunoblot) in 3T3-L1 cells as read-out of MNK activity; assay type: cell-based; settings: for inhibition of P-eIF4E / MNK activity: immunoblot
Description: Similar data obtained in three replicate experiments.
The term “MNK inhibitor” as used herein is intended to refer to any compound that reduces the biological activity of MNK1 (including reducing the biological activity of one or both of splice variants MNK1 a and MNK1b) and/or MNK2 (including reducing the biological activity of one or both of splice variants MNK2a and MNK2b), including by reducing the amount of MNK1 and/or MNK2 expressed. For example, the MNK inhibitor may be a small organic molecule (also referred to as a “small molecule” herein), a peptide antagonist, an inhibitory antibody or fragment thereof, an interfering nucleotide molecule, an aptamer or other MNK inhibitor that inhibits the expression or biological activity as would be understood by those skilled in the art. The biological activity of MNK1 and MNK2 can be measured in a variety of ways, for example, by measuring phosphorylation of its substrate eIF4E to P-eIF4E using any suitable method known to those skilled in the art, for example, by performing an immunoblot or ELISA utilising a specific anti-P-eIF4E antibody, for example, the anti-phospho eIF4E (Ser209) antibody distributed by Merck Millipore, Catalogue No. 07-823 (Merck Millipore, Billerica, Mass., United States of America). […] Those skilled in the art will be aware of how to conduct suitable controls when measuring P-eIF4E levels. The MNK1 and/or MNK2 bioactivity can otherwise be measured using a cellular assay that can detect levels of MNK1 and/or MNK2 bioactivity. Antibodies that specifically detect phosphorylated MNK could also be used, for example, anti-P-MNK1 (Phospho-Mnk1 (Thr197/202) Antibody #2111; Cell Signaling Technology Inc, Danvers, Mass., United States of America). Additionally, those skilled in the art will appreciate that the MNK inhibitors should be safe for use for its intended purpose.
Tissues were harvested in RIPA lysis buffer containing 50 mM TrisHCl, pH 7.4, 150 mM NaCl, 1% Triton X-100, 0.1% sodium deoxycholate, 0.1% sodium dodecyl sulfate, 1 mM ethylenediaminetetraaacteic acid (EDTA), 50 mM β-glycerolphosphate, 0.5 mM NaVO3, 0.1% 2-mercaptoethanol and protease inhibitors (Roche). After lysis, insoluble material was removed by centrifugation at 12,000 g for 10 min at 4° C. Protein content was determined by the Bradford protein assay (Bio-Rad). Immunoblotting was performed as described in Liu et al. (2014). Blots were visualised using a LI-COR Odyssey® Quantitative Imaging System. Primary antibodies as indicated in Table 5 were from Cell Signaling Technologies, except for anti-P-eIF4E (Merck Millipore). Secondary antibodies were obtained from Thermo Fisher Scientific Inc. (Waltham, Mass., United States of America) and used at 1:20,000 dilution.
MNKs are the only kinases known to phosphorylate eIF4E, and accordingly, the phosphorylation of eIF4E (P-eIF4E) provides a direct read-out of MNK biological activity.
(§1) Since eIF4E is only phosphorylated by the MNKs, its phosphorylation status is a reliable read-out of intracellular MNK activity. […] MNK2 is the main MNK in 3T3-L1 cells and in adipose tissue (Moore et al., 2016). In additional studies, tests were conducted to assess the effect of the MNK-I2 inhibitor on the induction of differentiation markers in 3T3-L1 cells.

3T3-L1 cells [1] = test: Induction of adipogenic gene mRNAs in differentiating 3T3-L1 cells (RT-qPCR); assay type: cell-based
Method: Total RNA was isolated from tissues (frozen at the time of sampling) using Trizol reagent (Sigma-Aldrich) according to the manufacturer's instructions. RNA concentrations were determined by absorbance at 260 nm, while quality and integrity were evaluated via 260/230 and 260/280 ratios using a NanoDrop spectrophotometer (Thermo Fisher Scientific). RT-real time PCR amplification was carried out using the ImProm-II Reverse Transcription System (A3800; Promega, Madison, Wis., United States of America) with random primers following the manufacturer's protocol. Subsequently, real-time quantitative (q) PCR was performed using primer sequences described in Supplemental Table S1 of Moore CEJ et al., 2016, the content of which is hereby incorporated by reference in its entirety). The comparative CT method was used to measure the amplification of target mRNA levels compared with […] (B2M) mRNA. In FIG. 1A, the relative amount of each transcript was determined using the equation 2^−dCt, where dCt=(Ct target gene-Ct ref gene), and Ct=cycle threshold.
(§2) For induction of 3T3-L1 (fibroblast) cell differentiation, pre-adipocytes were grown to 2 days post-confluence in DMEM supplemented with 10% FBS (day 0) and the medium was changed to DMEM supplemented with 10% FBS, insulin (167 nM), dexamethasone (0.5 μM), isobutylmethylxanthine (IBMX) (0.5 mM) and rosiglitazone (2 μM). After 48 h, the medium was replaced with medium containing DMEM supplemented with 10% (v/v) FBS and 167 nM insulin. On day 4, after inducing differentiation, and thereafter, the cells were cultured in DMEM with 10% FBS. The maintenance medium was changed every 48 h until the cells were utilised for experimentation (9 days from the initiation of differentiation).
In order to study the role of MNK2 in adipocyte differentiation, 3T3-L1 cells were used in a similar manner to that described in Example 1. […]

MNK2 [2] = molecular target: T1, MNK2 (Mus musculus, UniProt Q8CDB0); test: P-eIF4E in MNK1-KO mouse embryonic fibroblasts (reports on MNK2); assay type: cell-based
T1 construct: endogenous in cells; host or cells: MNK1-KO mouse embryonic fibroblasts

MNK1 [3] = molecular target: T2, MNK1 (Mus musculus, UniProt O08605); test: P-eIF4E in MNK2-KO mouse embryonic fibroblasts (reports on MNK1); assay type: cell-based; settings: 1 h
T2 construct: endogenous in cells; host or cells: MNK2-KO mouse embryonic fibroblasts
Description: FIG. 16 provides the results of studies conducted on mouse embryonic fibroblasts (MEFs): MNK1-KO (A) or MNK2-KO (B). […] The graphs show combined data from three experiments. *, p<0.05 vs. untreated control; ****, p<0.0001, vs. untreated control.
In some embodiments, the MNK inhibitor may preferably show selectivity and/or increased inhibitory potency to MNK2. A simple test for assessing the selectivity of an MNK inhibitor can be conducted by treating suitable cells from animals in which either MNK1 or MNK2 has been knocked out (eg mouse embryonic fibroblasts (MEFs) from MNK1-KO and MNK2-KO mice) with the MNK inhibitor. Since, in MNK1-KO MEFs, eIF4E phosphorylation depends on MNK2, and vice versa, monitoring the effect of different concentrations of an MNK inhibitor of interest on P-eIF4E levels in MNK-KO MEFs reports on the ability of that compound to inhibit MNK2 (MNK1-KO MEFs) or MNK1 (MNK2-KO MEFs).
as §1

MNK1 [4] = molecular target: MNK1 (Homo sapiens, UniProt Q9BUB5); settings: cited from earlier work
MNK2 [5] = molecular target: MNK2 (Homo sapiens, UniProt Q9HBH9); settings: cited from earlier work
3T3-L1 cells [6] = test: Lipid accumulation in differentiating 3T3-L1 cells (Oil Red O / triglyceride); assay type: cell-based; settings: 20 μM, 3T3-L1 cells differentiated 9 days
Method: as §2
Assessment of intracellular triglyceride levels was performed using Oil Red O staining as described by others (Smith et al., 1988). Briefly, on day 9 of differentiation of the 3T3-L1 cells were fixed in 10% formalin for 1 hour. […] For quantification, cells were washed extensively with water to remove unbound dye, and 1 ml isopropanol was added to the stained 6-well culture plate. After 5 min, the absorbance of the oil red extract at 510 nm was measured, with an increased absorbance indicative of an increased lipid level within the cells.
The amount of tissue-released triglyceride (TAG) was measured using a Triglyceride Quantification Kit (Abcam, ab65336).

3T3L1 cells = test: Lipolysis assay (glycerol release) in differentiated 3T3-L1 cells; assay type: cell-based; settings: cells differentiated in presence vs absence of compound
Method: 3T3L1 cells were differentiated as described above for 9 days. The lipolysis assay was performed according to the manufactures instructions (Abcam Lipolysis assay kit, ab185433, Abcam). Briefly, after differentiation cells were washed two times with lipolysis assay buffer. Lipolysis was stimulated using 100 nM isoproterenol for 3 h. The amount of glycerol released was measured using colorimetric intensity.

other protein kinases = settings: cited from earlier work

T1 sequence (Q8CDB0 whole entry): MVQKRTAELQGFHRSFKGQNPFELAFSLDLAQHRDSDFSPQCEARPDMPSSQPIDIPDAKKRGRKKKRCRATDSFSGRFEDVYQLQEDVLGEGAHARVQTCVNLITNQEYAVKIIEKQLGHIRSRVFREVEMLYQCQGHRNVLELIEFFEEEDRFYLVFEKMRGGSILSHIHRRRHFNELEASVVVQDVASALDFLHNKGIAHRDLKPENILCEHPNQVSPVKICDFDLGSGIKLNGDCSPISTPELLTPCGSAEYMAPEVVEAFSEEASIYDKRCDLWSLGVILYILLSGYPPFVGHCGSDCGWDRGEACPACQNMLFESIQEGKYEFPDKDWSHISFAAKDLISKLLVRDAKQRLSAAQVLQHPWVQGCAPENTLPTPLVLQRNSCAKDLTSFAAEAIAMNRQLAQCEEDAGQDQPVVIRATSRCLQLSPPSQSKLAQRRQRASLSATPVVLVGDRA
MNK2 (Homo sapiens, UniProt Q9HBH9), sequence (Q9HBH9 whole entry, species assumed): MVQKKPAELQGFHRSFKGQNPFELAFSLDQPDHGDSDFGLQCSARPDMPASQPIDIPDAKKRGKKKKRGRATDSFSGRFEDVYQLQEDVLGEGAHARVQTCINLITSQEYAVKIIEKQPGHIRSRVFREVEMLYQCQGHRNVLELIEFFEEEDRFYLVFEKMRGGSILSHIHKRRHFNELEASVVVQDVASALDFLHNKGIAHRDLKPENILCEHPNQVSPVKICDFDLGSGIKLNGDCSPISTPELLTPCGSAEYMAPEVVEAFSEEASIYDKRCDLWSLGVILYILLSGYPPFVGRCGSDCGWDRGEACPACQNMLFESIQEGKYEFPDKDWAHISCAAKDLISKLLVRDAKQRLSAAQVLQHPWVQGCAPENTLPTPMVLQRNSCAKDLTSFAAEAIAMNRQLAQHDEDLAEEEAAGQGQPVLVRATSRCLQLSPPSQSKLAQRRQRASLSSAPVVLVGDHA
T2 sequence (O08605 whole entry): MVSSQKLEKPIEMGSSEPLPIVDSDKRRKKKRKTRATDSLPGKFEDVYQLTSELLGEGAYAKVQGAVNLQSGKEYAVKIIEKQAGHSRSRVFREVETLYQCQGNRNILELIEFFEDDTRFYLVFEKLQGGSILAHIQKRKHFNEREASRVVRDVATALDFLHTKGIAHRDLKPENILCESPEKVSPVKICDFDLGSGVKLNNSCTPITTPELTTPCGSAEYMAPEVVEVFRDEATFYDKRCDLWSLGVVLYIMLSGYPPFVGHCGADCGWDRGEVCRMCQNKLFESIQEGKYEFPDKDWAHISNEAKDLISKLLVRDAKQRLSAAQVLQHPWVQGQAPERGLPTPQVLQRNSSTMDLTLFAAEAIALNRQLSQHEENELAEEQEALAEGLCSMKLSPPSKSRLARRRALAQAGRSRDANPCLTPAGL
MNK1 (Homo sapiens, UniProt Q9BUB5), sequence (Q9BUB5 whole entry, species assumed): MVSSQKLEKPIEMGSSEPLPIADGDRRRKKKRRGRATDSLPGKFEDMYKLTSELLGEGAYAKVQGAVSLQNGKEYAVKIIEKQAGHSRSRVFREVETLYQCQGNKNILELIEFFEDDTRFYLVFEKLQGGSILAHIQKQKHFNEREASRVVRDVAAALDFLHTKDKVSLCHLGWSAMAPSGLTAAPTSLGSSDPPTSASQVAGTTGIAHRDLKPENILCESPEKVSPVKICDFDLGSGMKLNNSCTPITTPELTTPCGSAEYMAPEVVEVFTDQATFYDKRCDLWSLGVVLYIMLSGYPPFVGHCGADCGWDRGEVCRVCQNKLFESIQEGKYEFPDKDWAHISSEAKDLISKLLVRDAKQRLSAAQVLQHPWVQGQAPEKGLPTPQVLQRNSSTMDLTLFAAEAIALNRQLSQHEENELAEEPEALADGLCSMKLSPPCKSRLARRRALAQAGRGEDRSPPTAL

Compound	Comments (ability to inhibit MNKs, eIF4E phosphorylation) (MNKs)	inhibition of P-eIF4E / MNK activity (MNKs)	induction of adipogenic genes (Cebpα, Cebpβ, Cebpδ, Pparγ, Fas, Acc, Cd36 mRNA) (3T3-L1 cells [1]; 3T3-L1 cells with differentiation cocktail, RT-qPCR)	inhibition of P-eIF4E levels in MNK1-KO MEFs (MNK2 [2]; 1 h, lowest concentration 0.1 μM)	selectivity for MNK2 over MNK1 (MNK2 [2]; comparison of MNK1-KO and MNK2-KO MEFs)	inhibition of P-eIF4E in MNK2-KO MEFs (MNK1 [3])	IC50 (MNK1 [4])	IC50 (MNK2 [5])	accumulation of lipid (Oil Red O) (3T3-L1 cells [6])	induction of adipogenic genes (PPARγ, C/EBPα, SREBP1c, GLUT4, CD36 mRNA) (3T3-L1 cells [1]; 20 μM, day 3 and 6 of differentiation)	glycerol released in lipolysis assay (3T3L1 cells)	inhibition of other protein kinases (other protein kinases)
Cc1c(C(=O)NCCCN2CCCC2)sc2ncnc(Nc3ccc(F)cc3OC(C)C)c12 [MNK-I2]	Good activity, especially against MNK2	inhibits P-eIF4E strongly	impaired the induction of all of the genes in the adipogenic programme	inhibited P-eIF4E levels almost completely at all concentrations tested	selectivity of the MNK-I2 inhibitor for MNK2 over MNK1	weaker inhibitory effect than MNK-I1	–	–	–	–	–	–
c1cc(-c2cc(C3CCNCC3)[nH]n2)ccn1 [ETP 45835 dihydrochloride, 4-[5-(4-Piperidinyl)-1H-pyrazol-3-yl]pyridine dihydrochloride]	–	–	–	–	–	–	575 nM	646 nM	–	–	–	–
Nc1ncnc2[nH]nc(Nc3ccc(F)cc3)c12 [CGP57380, N3-(4-Fluorophenyl)-1H-pyrazolo-[3,4-d]pyrimidine-3,4-diamine]	–	almost completely blocking MNK activity	–	–	–	–	–	–	inhibited the accumulation of lipid; also recorded: markedly inhibited	substantially blocked the induction of all of these genes; also recorded: impairs the induction of key transcription factors; also recorded: inhibits the expression of the glucose and lipid transporters GLUT4 and CD36; also recorded: inhibited expression of a number of genes required for adipocyte differentiation	less glycerol was released	inhibit other protein kinases in addition to the MNKs
